Test results as given in patent US6406679B1, “Use of HL-60-related lectins in drug delivery and detection of lectin-expressing cells” (Incyte Pharmaceuticals, Inc., priority 1992, dated 2002).

Columns and labels:
[1] = tested on: T-cell lines MOLT4 and ARR on thymic epithelial cells; assay: Binding of cultured T-cells to thymic epithelial cells (DPM); type: cell-based, human; settings: lectin-treated T-cells with terminal galactose residues, FIG. 4
Protocol: The effects of the lectin on the binding of cultured T-cells to thymic epithelial cells were further tested according to the protocol of Singer et al., (Proc. Natl. Acad. Sci. (1986) 83:6588-92). T-cell lines MOLT4 and ARR (a T-cell line with sialic-acid-terminating glycoproteins) were incubated with tritiated thymidine. Next, the cells were treated with neuraminidase (which cleaves terminal sialic acids from the glycoproteins on ARR cells and leaves terminal galactose), galactosidase, endolactosaminidase or no enzyme. After this step, they cells were incubated with and without lectin. All the treatment and control groups of T-cells were layered over thymic epithelial cells, incubated and washed as described in Singer et al. Lastly, the amount of bound T-cells was quantitated by […] per minute (DPM).

BALB/c and C57B/6 mice = assay: Experimental autoimmune myasthenia gravis (EAMG): clinical signs of neuromuscular dysfunction; type: in vivo, mouse
Description: Experimental autoimmune myasthenia gravis (EAMG) is an antibody-mediated autoimmune disease responding to acetylcholine receptors (AChR). This condition in mice is a recognized model for studying the effects of the autoimmune response on neuromuscular transmission (Levi, G. et al., Eur. J. Immunol. (1983) 13:500-507; Lefvert, A. K. et al., Scand. J. Immunol. (1978) 8:525; Lefvert, A. K. et al., J. Neuro. Immunol. (1985) 9:41; Lefvert, A. K. et al., Eur. J. Immunol. (1982) 12:790). It appears that myasthenia gravis is mediated by T helper cells, which produce acetylcholine receptor antibodies. The disease is induced in mice by injection of acetylcholine receptor. The acetylcholine receptor is obtained from the electric organ of the ray Torpedo marmorata and purified by affinity chromatography on Naja naja siamensis neurotoxin crosslinked to Sephadex.
Young adult female BALB/c and C57B/6 mice (2-4 months of age) were used because they differ in EAMG susceptibility. The mice were injected subcutaneously with 10 μg of purified acetylcholine receptor, in Freund's complete adjuvant without and with the 14 kD-β-gal lectin.
Blood was obtained after 3 days and after 1, 2, 3 and 4 weeks. To follow the development of the disease, the mice were observed daily for signs of neuromuscular dysfunction and after 10 days subjected to forced exercise using repetitive grasping, swimming and inverted hang. These exercises were repeated after warming under a heat lamp at 35° C. for 5 min.

BALB/c mice = assay: B-cell repertoire: hybridoma clones producing antibodies against the immunizing antigen; type: in vivo, mouse; settings: for Number of Clones Producing Antibodies: 180 primary clones; for Experimental % of Control: clones with lectin vs antigen only
Protocol: The effect of the recombinant lectin on B-cell activation in BALB/c mice was also assayed using standard assays determining the number of hybridomas secreting antibodies to the administered antigen.
Three BALB/c female mice (7-8 weeks old) were injected intraperitoneally with 5 μg of […], tetanus toxoid or pneumococcal polysaccharide, respectively, in complete Freund's adjuvant. Two weeks later, the mice were injected intravenously with the same amount of antigen in 0.15 M sodium phosphate buffer, pH 7.4. […]. A mixture of capsular polysaccharide extracts from 23 different serotypes of Streptococcus pneumoniae (Pneumovax®) was obtained from Merck Sharp & Dohme, Inc. (West Point, Pa.). Three other mice of the same strain were similarly immunized with these antigens in combination with 15 μg of the recombinant lectin; controls received only the antigens.
The animals were sacrificed 4 days after the booster injection and spleen cells (10^8 cells) were fused with the nonsecreting B-lymphocytoma cell line SP2-OAg14 (2×10^7 cells). The cell mixture was distributed in 6×96 Costar tray wells (2×10^5 cells/well) with a feeder layer of mouse peritoneal macrophages (5×10^5 cells/well). From the third day in culture HAT (hypoxanthine-aminopterin-thymidine) medium was added. After 10-14 days, supernatants were assayed for binding to the respective antigens used for immunization using an enzyme-linked immunosorbent assay (ELISA).

Human blood cells = assay: Staining of lectin-pretreated human blood cells with fluoresceinated antibodies (histogram analyses); type: cell-based
Description: Human blood cells were pretreated with the inventive HL-60 lectin and then stained with fluoresceinated antibody having several different specificities. Control cells were not pretreated with lectin. […] However, the effect of lectin treatment on M1 and M3 macrophages was significant.

[2] = HLA-DR, lectin-pretreated cells
[3] = NK(L-A), lectin-pretreated cells

For “Lectin: Soluble 14 kD β-galactoside-binding HL-60/placenta lectin of FIG. 1 (SEQ ID NO:2), prepared recombinantly in E. coli”, the “Binding of T-cells to thymic epithelial cells” value [1] was “appreciably bound”, the “Mice Showing Clinical Signs of Neuromuscular Dysfunction (%)” value (“Mice Showing Clinical Signs … (%)” below) (BALB/c and C57B/6 mice; BALB/c, Receptor + 2.5 μg Lectin s.c.) was 18% and the “Mice Showing Clinical Signs … (%)” value (BALB/c and C57B/6 mice; BALB/c, Receptor + 12 μg Lectin s.c.) was 4%. For the same substance, the “Mice Showing Clinical Signs … (%)” value (BALB/c and C57B/6 mice; C57B/6, Receptor + 2.5 μg Lectin s.c.) was 59%, the “Mice Showing Clinical Signs … (%)” value (BALB/c and C57B/6 mice; C57B/6, Receptor + 12 μg Lectin s.c.) was 11% and the neuromuscular deterioration (BALB/c and C57B/6 mice; both strains, higher lectin dose levels) was “markedly slowed”. The “Number of Clones Producing Antibodies” value (BALB/c mice; Pneumococcal polysaccharide + 15 μg lectin) was 111, the “Experimental % of Control” value (BALB/c mice; Pneumococcal polysaccharide) was 78% and the “Number of Clones Producing Antibodies” value (BALB/c mice; Tetanus toxoid + 15 μg lectin) was 79. The “Experimental % of Control” value (BALB/c mice; Tetanus toxoid) was 48%, the “Number of Clones Producing Antibodies” value (BALB/c mice; Torpedo receptor + 15 μg lectin) was 54 and the “Experimental % of Control” value (BALB/c mice; Torpedo receptor) was 41%. For the same substance, the “+FL1” value (Human blood cells; CD3+, lectin-pretreated cells) was 458, the “+mode” value (Human blood cells; CD3+, lectin-pretreated cells) was 416 and the percent (Human blood cells; CD3+, lectin-pretreated cells) was 77.8%. The “+FL1” value (Human blood cells; CD4+, lectin-pretreated cells) was 181.5, the “+mode” value (Human blood cells; CD4+, lectin-pretreated cells) was 151 and the percent (Human blood cells; CD4+, lectin-pretreated cells) was 46.4%. The “+FL1” value (Human blood cells; [2]) was 614, the “+mode” value (Human blood cells; [2]) was 432 and the percent (Human blood cells; [2]) was 13.3%. The “+FL1” value (Human blood cells; M1, lectin-pretreated cells) was 403, the “+mode” value (Human blood cells; M1, lectin-pretreated cells) was 387 and the percent (Human blood cells; M1, lectin-pretreated cells) was 46.1%. The “reduction of the percent of positive cells” value (Human blood cells; M1 macrophages, lectin vs control) was 33%, the “+FL1” value (Human blood cells; M3, lectin-pretreated cells) was 549 and the “+mode” value (Human blood cells; M3, lectin-pretreated cells) was 517. The percent (Human blood cells; M3, lectin-pretreated cells) was 45.1%, the “reduction of the percent of positive cells” value (Human blood cells; M3 macrophages, lectin vs control) was 26% and the “+FL1” value (Human blood cells; [3]) was 106. For the same substance, the “+mode” value (Human blood cells; [3]) was 94.7, the percent (Human blood cells; [3]) was 10.8% and the “changes for CD3+, CD4+, NK(L-A) or HLA-DR cell markers” value (Human blood cells; lectin vs control) was “No significant changes”.
